Experimental data from article PMC6138693, “Structural determinants of Rab11 activation by the guanine nucleotide exchange factor SH3BP5” (Nature Communications, 2018).

Tests used:
Rab2A = biological target: T1, Rab2A (Homo sapiens, UniProt P61019); test: Mant-GDP loading, fluorescence release assay; format: binding; settings: labelled compound; nucleotide site; Mg2+, 100 uM GTPgammaS, SH3BP5 as exchange factor
T1 construct: recombinant in E. coli, N-terminal GST cut by TEV

Rab12 = biological target: T2, Rab12 (Homo sapiens, UniProt Q6IQ22); test: Mant-GDP loading, fluorescence release assay; format: binding; settings: labelled compound; nucleotide site; Mg2+, 100 uM GTPgammaS, SH3BP5 as exchange factor
T2 construct: recombinant in E. coli, N-terminal GST cut by TEV
T2 sequence (Q6IQ22 whole entry): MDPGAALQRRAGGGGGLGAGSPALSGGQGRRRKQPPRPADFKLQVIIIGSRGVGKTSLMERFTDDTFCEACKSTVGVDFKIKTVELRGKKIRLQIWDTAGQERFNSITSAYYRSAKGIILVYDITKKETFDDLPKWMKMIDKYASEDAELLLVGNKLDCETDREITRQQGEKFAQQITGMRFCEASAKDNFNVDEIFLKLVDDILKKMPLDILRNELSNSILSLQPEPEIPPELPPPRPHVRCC

Rab4B = biological target: T3, Rab4B (Homo sapiens, UniProt P61018); test: Mant-GDP loading, fluorescence release assay; format: binding; settings: labelled compound; nucleotide site; Mg2+, 100 uM GTPgammaS, SH3BP5 as exchange factor
T3 construct: recombinant in E. coli, N-terminal GST cut by TEV
T3 sequence (P61018 whole entry): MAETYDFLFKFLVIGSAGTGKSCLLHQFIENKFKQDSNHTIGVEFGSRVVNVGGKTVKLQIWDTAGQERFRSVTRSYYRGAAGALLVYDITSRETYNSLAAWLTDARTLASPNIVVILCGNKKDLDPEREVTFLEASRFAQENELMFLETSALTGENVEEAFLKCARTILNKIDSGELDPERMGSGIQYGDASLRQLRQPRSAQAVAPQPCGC

Rab11A [1] = biological target: T4, Rab11A (Homo sapiens, UniProt P62491, F36A, form not given); test: Mant-GDP loading, then fluorescence release on GEF-driven exchange; format: binding; settings: labelled compound; nucleotide site; Mg2+, 100 uM GTPgammaS, with and without SH3BP5
T4 construct: Rab11A with C-terminal His-tag kept, N-terminal GST cut by TEV; E. coli BL21 C41 (residues 1-211 given for the His-tagged HDX construct)
T4 sequence (P62491 1-211 F36A, form open): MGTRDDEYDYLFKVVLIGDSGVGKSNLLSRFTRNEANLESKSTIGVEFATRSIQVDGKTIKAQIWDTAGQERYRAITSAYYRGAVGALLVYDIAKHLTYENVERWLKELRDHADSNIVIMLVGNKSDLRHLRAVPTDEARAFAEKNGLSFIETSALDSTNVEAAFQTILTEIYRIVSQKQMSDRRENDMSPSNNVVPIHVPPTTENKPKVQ

Rab11A [2] = biological target: T5, Rab11A (Homo sapiens, UniProt P62491); test: as above; format: binding; settings: labelled compound; nucleotide site; Mg2+, 100 uM GTPgammaS, SH3BP5 as exchange factor
T5 construct: Rab11A with C-terminal His-tag kept, N-terminal GST cut by TEV; E. coli BL21 C41 (residues 1-211 given for the His-tagged HDX construct)
T5 sequence (P62491 1-211): as the sequence (P62491 1-211 F36A, form open) above, with A36F counted along it

Rab11A [3] = biological target: T6, Rab11A (Homo sapiens, UniProt P62491, Q70L, form not given); test: as above; format: binding; settings: labelled compound; nucleotide site; Mg2+, 100 uM GTPgammaS, SH3BP5 as exchange factor
T6 construct: Rab11A with C-terminal His-tag kept, N-terminal GST cut by TEV; E. coli BL21 C41 (residues 1-211 given for the His-tagged HDX construct)
T6 sequence (P62491 1-211 Q70L, form open): as the sequence (P62491 1-211 F36A, form open) above, with A36F, Q70L counted along it

Rab11A [4] = biological target: T7, Rab11A (Homo sapiens, UniProt P62491, R82C, form not given); test: as above; format: binding; settings: labelled compound; nucleotide site; Mg2+, 100 uM GTPgammaS, with and without SH3BP5
T7 construct: Rab11A with C-terminal His-tag kept, N-terminal GST cut by TEV; E. coli BL21 C41 (residues 1-211 given for the His-tagged HDX construct)
T7 sequence (P62491 1-211 R82C, form open): as the sequence (P62491 1-211 F36A, form open) above, with A36F, R82C counted along it

Rab11A [5] = biological target: T8, Rab11A (Homo sapiens, UniProt P62491, K24R, form not given); test: as above; format: binding; settings: labelled compound; nucleotide site; Mg2+, 100 uM GTPgammaS, with and without SH3BP5
T8 construct: Rab11A with C-terminal His-tag kept, N-terminal GST cut by TEV; E. coli BL21 C41 (residues 1-211 given for the His-tagged HDX construct)
T8 sequence (P62491 1-211 K24R, form open): as the sequence (P62491 1-211 F36A, form open) above, with K24R, A36F counted along it

Rab25 = biological target: T9, Rab25 (Homo sapiens, UniProt P57735); test: as above; format: binding; settings: labelled compound; nucleotide site; Mg2+, 100 uM GTPgammaS, SH3BP5 as exchange factor
T9 construct: C-terminal His-tag, N-terminal GST cut by TEV; E. coli Rosetta
T9 sequence (P57735 whole entry): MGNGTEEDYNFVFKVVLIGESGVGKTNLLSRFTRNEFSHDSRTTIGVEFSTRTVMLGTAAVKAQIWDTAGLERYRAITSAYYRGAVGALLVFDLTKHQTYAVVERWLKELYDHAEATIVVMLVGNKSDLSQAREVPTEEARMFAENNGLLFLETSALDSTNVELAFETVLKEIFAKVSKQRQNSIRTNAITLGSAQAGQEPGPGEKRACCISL

Rab8 = biological target: T10, Rab8 (Homo sapiens, UniProt P61006); test: Mant-GDP loading, fluorescence release assay; format: binding; settings: labelled compound; nucleotide site; Mg2+, 100 uM GTPgammaS, SH3BP5 as exchange factor
T10 construct: gene RAB8A; recombinant in E. coli, N-terminal GST cut by TEV
T10 sequence (P61006 whole entry): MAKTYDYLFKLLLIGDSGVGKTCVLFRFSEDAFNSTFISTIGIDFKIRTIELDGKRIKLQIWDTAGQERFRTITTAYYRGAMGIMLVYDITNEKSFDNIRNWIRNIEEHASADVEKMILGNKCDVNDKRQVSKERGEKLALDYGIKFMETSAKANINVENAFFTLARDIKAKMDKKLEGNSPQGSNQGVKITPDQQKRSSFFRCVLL

Rab11A [6] = biological target: T11, Rab11A (Homo sapiens, UniProt P62491, S40F, form not given); test: Mant-GDP loading, then fluorescence release on GEF-driven exchange; format: binding; settings: labelled compound; nucleotide site; Mg2+, 100 uM GTPgammaS, with and without SH3BP5
T11 construct: Rab11A with C-terminal His-tag kept, N-terminal GST cut by TEV; E. coli BL21 C41 (residues 1-211 given for the His-tagged HDX construct)
T11 sequence (P62491 1-211 S40F, form open): as the sequence (P62491 1-211 F36A, form open) above, with A36F, S40F counted along it

Rab14 = biological target: T12, Rab14 (Homo sapiens, UniProt P61106); test: Mant-GDP loading, fluorescence release assay; format: binding; settings: labelled compound; nucleotide site; Mg2+, 100 uM GTPgammaS, SH3BP5 as exchange factor
T12 construct: recombinant in E. coli, N-terminal GST cut by TEV
T12 sequence (P61106 whole entry): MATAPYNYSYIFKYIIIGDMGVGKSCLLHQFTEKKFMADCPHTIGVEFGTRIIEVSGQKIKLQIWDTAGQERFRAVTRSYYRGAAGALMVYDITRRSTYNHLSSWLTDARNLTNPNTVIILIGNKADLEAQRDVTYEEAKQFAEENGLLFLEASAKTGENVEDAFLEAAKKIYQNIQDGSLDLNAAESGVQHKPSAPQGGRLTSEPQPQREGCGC

Rab11A [7] = biological target: T13, Rab11A (Homo sapiens, UniProt P62491, S25N, form not given); test: Mant-GDP loading, then fluorescence release on GEF-driven exchange; format: binding; settings: labelled compound; without SH3BP5
T13 construct: Rab11A with C-terminal His-tag kept, N-terminal GST cut by TEV; E. coli BL21 C41 (residues 1-211 given for the His-tagged HDX construct)
T13 sequence (P62491 1-211 S25N, form open): as the sequence (P62491 1-211 F36A, form open) above, with S25N, A36F counted along it

Rab11A [8] = biological target: T14, Rab11A (Homo sapiens, UniProt P62491, L38P, form not given); test: as above; format: binding; settings: labelled compound; nucleotide site; Mg2+, 100 uM GTPgammaS, with and without SH3BP5
T14 construct: Rab11A with C-terminal His-tag kept, N-terminal GST cut by TEV; E. coli BL21 C41 (residues 1-211 given for the His-tagged HDX construct)
T14 sequence (P62491 1-211 L38P, form open): as the sequence (P62491 1-211 F36A, form open) above, with A36F, L38P counted along it

Rab11A [9] = biological target: T15, Rab11A (Homo sapiens, UniProt P62491, I44A, form not given); test: as above; format: binding; settings: labelled compound; nucleotide site; Mg2+, 100 uM GTPgammaS, with and without SH3BP5
T15 construct: Rab11A with C-terminal His-tag kept, N-terminal GST cut by TEV; E. coli BL21 C41 (residues 1-211 given for the His-tagged HDX construct)
T15 sequence (P62491 1-211 I44A, form open): as the sequence (P62491 1-211 F36A, form open) above, with A36F, I44A counted along it

[10] = biological target: WT Rab11A (1–211, C-term his) (human) (UniProt P62491)
Chain of WT Rab11A (1–211, C-term his) (human) (P62491 1-211): as the sequence (P62491 1-211 F36A, form open) above, with A36F counted along it

T1 sequence (P61019 whole entry): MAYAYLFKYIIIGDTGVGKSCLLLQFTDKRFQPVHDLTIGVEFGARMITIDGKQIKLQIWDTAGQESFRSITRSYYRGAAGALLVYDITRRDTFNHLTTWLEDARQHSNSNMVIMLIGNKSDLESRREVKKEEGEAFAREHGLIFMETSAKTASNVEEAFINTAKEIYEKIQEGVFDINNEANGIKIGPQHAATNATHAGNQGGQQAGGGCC

| Molecule | Mant-GDP loading, fluorescence release assay (Rab2A) | Mant-GDP loading, fluorescence release assay (Rab12) | Mant-GDP loading, fluorescence release assay (Rab4B) | Mant-GDP loading, then fluorescence release on GEF-driven exchange (Rab11A [1]) | Mant-GDP loading, then fluorescence release on GEF-driven exchange (Rab11A [2]) | Mant-GDP loading, then fluorescence release on GEF-driven exchange (Rab11A [3]) | Mant-GDP loading, then fluorescence release on GEF-driven exchange (Rab11A [4]) | Mant-GDP loading, then fluorescence release on GEF-driven exchange (Rab11A [5]) | Mant-GDP loading, then fluorescence release on GEF-driven exchange (Rab25) | Mant-GDP loading, fluorescence release assay (Rab8) | Mant-GDP loading, then fluorescence release on GEF-driven exchange (Rab11A [6]) | Mant-GDP loading, fluorescence release assay (Rab14) | Mant-GDP loading, then fluorescence release on GEF-driven exchange (Rab11A [7]) | Mant-GDP loading, then fluorescence release on GEF-driven exchange (Rab11A [8]) | Mant-GDP loading, then fluorescence release on GEF-driven exchange (Rab11A [9]) | GEF activity on Rab11A (Mant-GDP release), mutant (1000 nM) compared with WT SH3BP5 (52 nM) (fold decrease) [10] |
| --- | --- | --- | --- | --- | --- | --- | --- | --- | --- | --- | --- | --- | --- | --- | --- | --- |
| CNc1ccccc1C(=O)O[C@H]1C[C@H](n2cnc3c(=O)[nH]c(N)nc32)O[C@@H]1COP(=O)(O)OP(=O)(O)O [Mant-GDP, 3-(N-methyl-anthraniloyl)-2-deoxy-GDP] | panel of evolutionarily related Rab GTPases loaded with Mant-GDP | panel of evolutionarily related Rab GTPases loaded with Mant-GDP | panel of evolutionarily related Rab GTPases loaded with Mant-GDP | F36 and I44 residues, with mutation of these residues to Alanine | Rab11 isoforms Rab11A and Rab25 loaded with the fluorescent GDP analog | GEF assays on Q70L Rab11A showed a slightly elevated GEF-mediated nucleotide exchange rate | with R82 only partially decreasing SH3BP5 GEF activity | this mutant had rapid nucleotide exchange even in the absence of SH3BP5 | Rab11 isoforms Rab11A and Rab25 loaded with the fluorescent GDP analog | panel of evolutionarily related Rab GTPases loaded with Mant-GDP | Rab2A (L38P), Rab8 (S40F), and Rab14 (K41P) were also found to decrease GEF activity | panel of evolutionarily related Rab GTPases loaded with Mant-GDP | Rab11A (S25N) caused rapid release of Mant-GDP even in the absence of SH3BP5 | Rab2A (L38P), Rab8 (S40F), and Rab14 (K41P) were also found to decrease GEF activity | F36 and I44 residues, with mutation of these residues to Alanine | – |
| SH3BP5 (LNQ52AAA) (natural protein) MDAALKRSRSEEPAEILPPARDEEEEEEEGMEQGLEEEEEVDPRIQGELEKAAASTDDINRRETELEDARQKFRSVLVEATVKLDELVKKIGKAVEDSKPYWEARRVARQAQLEAQKATQDFQRATEVLRAAKETISLAEQRLLEDDKRQFDSAWQEMLNHATQRVMEAEQTKTRSELVHKETAARYNAAMGRMRQLEKKLKRAINKSKPYFELKAKYYVQLEQLKKTVDDLQAKLTLAKGEYKMALKNLEMISDEIHERRRSSAMGPRGCGVGAEGSSTSVEDLPGSKPEPDAISVASEAFEDDSCSNFVSEDDSETQSVSSFSSGPTSPSEMPDQFPAVVRPGSLDLPSPVSLSEFGMMFPVLGPRSECSGASSPECEVERGDRAEGAENKTSDKANNNRGLSSSSGSGGSSKSQSSTSPEGQALENRMKQLSLQCSKGRDGIIADIKMVQIG | – | – | – | – | – | – | – | – | – | – | – | – | – | – | – | > 100 |
| SH3BP5 (LE250AK) (natural protein) MDAALKRSRSEEPAEILPPARDEEEEEEEGMEQGLEEEEEVDPRIQGELEKLNQSTDDINRRETELEDARQKFRSVLVEATVKLDELVKKIGKAVEDSKPYWEARRVARQAQLEAQKATQDFQRATEVLRAAKETISLAEQRLLEDDKRQFDSAWQEMLNHATQRVMEAEQTKTRSELVHKETAARYNAAMGRMRQLEKKLKRAINKSKPYFELKAKYYVQLEQLKKTVDDLQAKLTLAKGEYKMALKNAKMISDEIHERRRSSAMGPRGCGVGAEGSSTSVEDLPGSKPEPDAISVASEAFEDDSCSNFVSEDDSETQSVSSFSSGPTSPSEMPDQFPAVVRPGSLDLPSPVSLSEFGMMFPVLGPRSECSGASSPECEVERGDRAEGAENKTSDKANNNRGLSSSSGSGGSSKSQSSTSPEGQALENRMKQLSLQCSKGRDGIIADIKMVQIG | – | – | – | – | – | – | – | – | – | – | – | – | – | – | – | > 100 |
